The target of assay [1] is T1, Angiotensin II receptor (AT-1) type-1 (Rattus norvegicus, UniProt P29089+P25095).
T1 sequence (P29089 whole entry): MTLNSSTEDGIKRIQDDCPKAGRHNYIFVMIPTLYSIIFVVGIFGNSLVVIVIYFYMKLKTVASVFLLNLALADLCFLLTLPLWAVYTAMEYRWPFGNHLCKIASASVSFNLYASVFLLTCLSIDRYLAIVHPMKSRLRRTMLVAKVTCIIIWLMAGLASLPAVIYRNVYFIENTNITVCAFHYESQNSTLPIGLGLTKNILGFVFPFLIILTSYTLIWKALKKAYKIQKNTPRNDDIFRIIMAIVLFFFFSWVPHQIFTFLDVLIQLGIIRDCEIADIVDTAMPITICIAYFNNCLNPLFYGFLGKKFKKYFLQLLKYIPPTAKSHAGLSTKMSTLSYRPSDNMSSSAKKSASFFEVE
T1 sequence (P25095 whole entry): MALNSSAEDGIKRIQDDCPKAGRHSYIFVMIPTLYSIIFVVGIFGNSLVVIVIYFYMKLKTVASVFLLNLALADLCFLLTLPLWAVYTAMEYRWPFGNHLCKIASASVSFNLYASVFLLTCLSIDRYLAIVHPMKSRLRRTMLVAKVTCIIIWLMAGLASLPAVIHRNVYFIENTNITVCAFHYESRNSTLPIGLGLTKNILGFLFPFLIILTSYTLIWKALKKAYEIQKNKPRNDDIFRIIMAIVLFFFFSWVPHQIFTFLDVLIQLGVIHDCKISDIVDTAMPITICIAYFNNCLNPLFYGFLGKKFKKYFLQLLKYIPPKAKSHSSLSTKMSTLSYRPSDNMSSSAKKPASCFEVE
The assay can be described thus: Compound was evaluated in a radioligand binding assay to displace [125I]-Ang II from Angiotensin II receptor, type 1 in rat liver membranes. Type of assay: cell membranes, Membrane.

Assay [2] addresses T1, Angiotensin II receptor (AT-1) type-1. The experiment in a line: Compound was evaluated in a binding assay using Chinese hamster ovary (CHO) cells stably expressing the rat Angiotensin II receptor, type 1. It counts as cell-based.

This passage reports IC50 results from ChEMBL document CHEMBL1132582, “Bicyclic tripeptide mimetics with reverse turn inducing properties” (J Med Chem, 1999).

Take `NC(N)=NCCC[C@H](NC(=O)[C@@H](N)CC(=O)O)C(=O)N[C@H]1C[C@H]2SC[C@@H](C(=O)N[C@@H](Cc3c[nH]cn3)C(=O)N3CCC[C@H]3C(=O)N[C@@H](Cc3ccccc3)C(=O)O)NC(=O)[C@H](Cc3ccc(O)cc3)N2C1=O`: the IC50 result in assay [1] and in assay [2] was “>= 10 uM” in each case.
